Experimental data taken from patent publication US7674825B2, “Dicarboxylic acid derivatives with pharmaceutical properties” (Bayer Aktiengesellschaft, priority 2002, dated 2010).

Key:
[1] = tested on: arteria saphena; experiment: Vasorelaxant action in vitro (phenylephrine-contracted arteria saphena rings); type: cell-based, Rabbits; details: Oryctolagus cuniculus; rabbit arteria saphena rings, contraction induced by phenylephrine; concentration reducing contraction to 50%
Procedure: Rabbits are anesthetized by intravenous injection of thiopental sodium […] (about 50 mg/kg) and exsanguinated. The arteria saphena is removed and divided into 3 mm wide rings. The rings are individually mounted on in each case one triangular pair of hooks, open at the end, made of 0.3 mm strong special wire (Remanium®). Under a pretension, each ring is transferred into 5 ml organ baths containing a warm, carbogen-aerated Krebs-Henseleit solution at 37° C. having the following composition (mM): NaCl: 119; KCl: 4.8; CaCl2×2 H2O: 1; MgSO4×7 H2O: 1.4; KH2PO4: 1.2; NaHCO3: 25; glucose: 10; bovine serum albumin: 0.001%. The contractility is detected using Statham UC2 cells, amplified and digitalized by means of A/D converters (DAS-1802 HC, Keithley Instruments Munich), and recorded in parallel on linear recorders. Contractions are induced by addition of phenylephrine.
After several (in general 4) control cycles, the substance to be investigated is added in each further passage in increasing dosage, and the height of the contraction achieved under the influence of the test substance is compared with the height of the contraction achieved in the last preliminary passage. From this, the concentration which is necessary in order to reduce the contraction achieved in the preliminary control to 50% (IC50) is calculated. The standard administration volume is 5 μl. The proportion of DMSO in the bath solution corresponds to 0.1%.

[2] = molecular target: T1, Heme-containing sGC (Rattus norvegicus, UniProt P20595); experiment: Stimulation of recombinant soluble guanylate cyclase (sGC) in vitro, heme-containing enzyme; type: biochemical; details: for Stimulation (n-fold) Heme-containing sGC Basal: n-fold stimulation of basal activity
T1 construct: made in house; host or cells: Sf9 insect cells (baculovirus)
T1 sequence (P19686 whole entry partner): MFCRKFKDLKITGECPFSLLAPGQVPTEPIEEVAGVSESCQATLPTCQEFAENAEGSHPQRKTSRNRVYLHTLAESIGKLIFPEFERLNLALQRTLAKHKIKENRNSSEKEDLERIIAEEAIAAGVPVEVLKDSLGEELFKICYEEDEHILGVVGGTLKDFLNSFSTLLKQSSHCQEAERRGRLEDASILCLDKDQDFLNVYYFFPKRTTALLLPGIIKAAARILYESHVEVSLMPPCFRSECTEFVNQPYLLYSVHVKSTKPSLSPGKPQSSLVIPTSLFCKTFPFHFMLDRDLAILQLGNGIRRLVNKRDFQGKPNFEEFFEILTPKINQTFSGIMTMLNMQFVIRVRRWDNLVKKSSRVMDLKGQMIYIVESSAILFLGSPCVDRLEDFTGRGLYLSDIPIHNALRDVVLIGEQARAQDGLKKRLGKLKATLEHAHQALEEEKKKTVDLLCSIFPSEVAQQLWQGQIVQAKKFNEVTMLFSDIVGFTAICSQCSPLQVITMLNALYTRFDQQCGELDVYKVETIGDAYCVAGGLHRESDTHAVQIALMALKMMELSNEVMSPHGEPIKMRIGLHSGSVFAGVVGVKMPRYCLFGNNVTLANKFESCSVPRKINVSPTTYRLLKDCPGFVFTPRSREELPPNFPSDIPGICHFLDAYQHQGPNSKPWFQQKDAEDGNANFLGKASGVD
T1 sequence (P20595 whole entry): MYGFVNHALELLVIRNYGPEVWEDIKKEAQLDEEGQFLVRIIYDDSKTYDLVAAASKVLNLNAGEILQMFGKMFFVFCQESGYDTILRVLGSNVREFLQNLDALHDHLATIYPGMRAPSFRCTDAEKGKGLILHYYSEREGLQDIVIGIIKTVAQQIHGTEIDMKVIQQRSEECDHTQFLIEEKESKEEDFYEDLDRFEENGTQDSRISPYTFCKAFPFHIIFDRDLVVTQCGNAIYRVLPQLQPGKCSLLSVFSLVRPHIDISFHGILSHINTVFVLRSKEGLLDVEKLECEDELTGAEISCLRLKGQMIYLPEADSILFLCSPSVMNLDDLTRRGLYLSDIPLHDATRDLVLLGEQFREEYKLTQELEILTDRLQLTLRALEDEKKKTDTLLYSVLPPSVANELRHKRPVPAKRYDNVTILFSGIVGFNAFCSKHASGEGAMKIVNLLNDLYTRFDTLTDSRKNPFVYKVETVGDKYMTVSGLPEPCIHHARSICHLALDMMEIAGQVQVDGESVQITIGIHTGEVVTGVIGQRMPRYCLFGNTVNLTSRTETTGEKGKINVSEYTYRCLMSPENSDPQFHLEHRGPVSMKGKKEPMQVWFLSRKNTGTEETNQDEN
Procedure: (§1) The investigations on the stimulation of recombinant soluble guanylate cyclase (sGC) and the compounds according to the invention with and without sodium nitroprusside and with and without the heme-dependent sGC inhibitor 1H-1,2,4-oxadiazole-(4,3a)-quinoxalin-1-one (ODQ) were carried out by the method described in detail in the following literature reference: M. Hoenicka, E. M. Becker, H. Apeler, T. Sirichoke, H. Schroeder, R. Gerzer and J.-P. Stasch: Purified soluble guanylyl cyclase expressed in a baculovirus/Sf9 system: stimulation by YC-1, nitric oxide, and carbon oxide. J. Mol. Med. 77 (1999): 14-23.
(§2) Activation of sGC by a test substance is stated as n-fold stimulation of basal activity.

[3] = molecular target: T2, Heme-free sGC (Rattus norvegicus, UniProt P20595); experiment: Stimulation of recombinant soluble guanylate cyclase (sGC) in vitro, heme-free enzyme; type: biochemical; details: heme-free (Tween 20 0.5%)
T2 construct: made in house; host or cells: Sf9 insect cells (baculovirus)
T2 sequence (P19686 whole entry partner): as the sequence (P19686 whole entry partner) above
T2 sequence (P20595 whole entry): as the sequence (P20595 whole entry) above
Procedure: as §1
Heme-free guanylate cyclase was obtained by adding Tween 20 to the sample buffer (final concentration 0.5%).
as §2

O=C(O)CCCCC(/C=C/c1ccccc1OCc1cc2ccccc2s1)Cc1ccc(C(=O)O)cc1 (stereo not shown) [Example 78]
IC50 [1]: 5.8 nM

O=C(O)CCCCC(CNc1ccccc1OCCCCCc1ccccc1)Cc1ccc(C(=O)O)cc1 (stereo not shown) [Example 150]
IC50 [1]: 30 nM

CCCCCCCCOc1ccccc1/C=C/C(CCCCC(=O)O)Cc1ccc(C(=O)O)cc1 (stereo not shown) [Example 29]
IC50 [1]: 2.5 nM

Cc1cc(COc2ccccc2/C=C/C(CCCCC(=O)O)Cc2ccc(C(=O)O)cc2)nn1-c1cc(Cl)cc(Cl)c1 (stereo not shown) [Example 76]
IC50 [1]: 5.2 nM

O=C(O)CCCCC(/C=C/c1ccccc1OCc1ccc(-c2ccccc2)cc1)Cc1ccc(C(=O)O)cc1 (stereo not shown) [Example 26]
IC50 [1]: 1.9 nM

O=C(O)CCCCC(/C=C/c1ccccc1OCCCCCN1CCCC1)Cc1ccc(C(=O)O)cc1 (stereo not shown) [Example 116]
IC50 [1]: 190 nM

O=C(O)CCCCC(/C=C/c1ccccc1OCc1ccc(-c2csc(C(F)(F)F)n2)cc1)Cc1ccc(C(=O)O)cc1 (stereo not shown) [Example 81]
IC50 [1]: 3.9 nM

O=C(O)CCCCC(/C=C/c1cccnc1OCCCCCc1ccccc1)Cc1ccc(C(=O)O)cc1 (stereo not shown) [Example 34]
IC50 [1]: 170 nM

O=C(O)CCCCC(/C=C/c1ccccc1OCc1ccc(C2CCCCC2)cc1)Cc1ccc(C(=O)O)cc1 (stereo not shown) [Example 72]
IC50 [1]: 0.2 nM

O=C(O)CCCC[C@@H](CCc1ccccc1OCc1ccc(C2CCCCC2)cc1)Cc1ccc(C(=O)O)cc1 [Example 93]
Stimulation (n-fold) Heme-containing sGC +ODQ (10 μM) ([2]; 0.1 μM test compound): 84 n-fold
Stimulation (n-fold) Heme-containing sGC +SNP (0.1 μM) ([2]; 0.1 μM test compound): 45 n-fold
Stimulation (n-fold) Heme-containing sGC Basal ([2]; 0.1 μM test compound): 17 n-fold
Stimulation (n-fold) Heme-containing sGC +ODQ (10 μM) ([2]; 1.0 μM test compound): 151 n-fold
Stimulation (n-fold) Heme-containing sGC +SNP (0.1 μM) ([2]; 1.0 μM test compound): 44 n-fold
Stimulation (n-fold) Heme-containing sGC Basal ([2]; 1.0 μM test compound): 23 n-fold
Stimulation (n-fold) Heme-containing sGC +SNP (0.1 μM) ([2]; 10 μM test compound): 54 n-fold
Stimulation (n-fold) Heme-containing sGC Basal ([2]; 10 μM test compound): 33 n-fold
Stimulation (n-fold) Heme-containing sGC +ODQ (10 μM) [2]: 178 n-fold
Stimulation (n-fold) Heme-free sGC +ODQ (10 μM) ([3]; 0.1 μM test compound): 392 n-fold
Stimulation (n-fold) Heme-free sGC Basal ([3]; 0.1 μM test compound): 436 n-fold
Stimulation (n-fold) Heme-free sGC +ODQ (10 μM) ([3]; 1.0 μM test compound): 435 n-fold
Stimulation (n-fold) Heme-free sGC Basal ([3]; 1.0 μM test compound): 476 n-fold
Stimulation (n-fold) Heme-free sGC +ODQ (10 μM) ([3]; 10 μM test compound): 500 n-fold
Stimulation (n-fold) Heme-free sGC Basal ([3]; 10 μM test compound): 541 n-fold
IC50 [1]: 0.2 nM

O=C(O)CCCCC(/C=C/c1ccccc1NCc1ccccc1)Cc1ccc(C(=O)O)cc1 (stereo not shown) [Example 30]
IC50 [1]: 3500 nM

O=C(O)CCCCC(COCc1cccc(Oc2ccccc2F)c1)Cc1ccc(C(=O)O)cc1 (stereo not shown) [Example 132]
IC50 [1]: 220 nM

O=C(O)CSCCC(/C=C/c1ccccc1OCCCCCc1ccccc1)Cc1ccc(C(=O)O)cc1 (stereo not shown) [Example 164]
IC50 [1]: 580 nM
